The text below walks through data of ChEMBL document CHEMBL5325391, “Spirolactone-type and enmein-type derivatives as potential anti-cancer agents derived from oridonin” (Bioorg Med Chem, 2022).

Molecules are shown by their SMILES. pIC50: −log10 of the molar value.

In series [1] the test system is K562. The series is described as follows: Antiproliferative activity against human K562 cells assessed as reduction in cell growth after 72 hrs by MTT assay. Format: functional, cell-based. To be noted: K562, 72 h.
The next series relates to MDA-MB-231. Briefly: Antiproliferative activity against human MDA-MB-231 cells assessed as reduction in cell growth after 72 hrs by MTT assay. Format: functional, cell-based. To be noted: MDA-MB-231, 72 h.
The next series relates to SMMC-7721. The series is described as follows: Antiproliferative activity against human SMMC-7721 cells assessed as reduction in cell growth after 72 hrs by MTT assay. Format: functional, cell-based. The conditions noted are these: SMMC-7721, 72 h. In general terms: Tetrazolium assays rely on reduction of a dye to a coloured formazan, in cell work by metabolically active cells.

For series [2], the system named is K562. The series is described as follows: Potency index, ratio of oridonin IC50 to compound IC50 for antiproliferative activity against human K562 cells after 72 hrs by MTT assay. The format is functional.
A further series has as its system SW480. The series is described as follows: Antiproliferative activity against human SW480 cells assessed as reduction in cell growth after 72 hrs by MTT assay. Format: functional, cell-based. To be noted: SW480, 72 h.
A short description of series [3]: Selectivity index, ratio of IC50 for human L02 cells to IC50 for human SMMC-7721 cells. Format: toxicity. To be noted: L02 cells versus SMMC-7721 cells, read-out: Ratio IC50.
Series [4] in a line: Cytotoxicity against human L02 cells incubated for 72 hrs by MTT assay. The format is toxicity, cell-based.

In general, pIC50 refers to the negative decadic logarithm of the IC50, by convention in mol/L. In the case of `C=C1C(=O)[C@@]23C(=O)O[C@H]4CCC(C)(C)[C@H]5C(=O)OC[C@]45[C@H]2CC[C@@H]1[C@H]3OC(=O)/C=C/c1ccncc1`, the pIC50 in the series with K562 [1] was 6.26; in the series on MDA-MB-231, 6.09; in the series with SMMC-7721, 6.08; with SW480, 6.15. In addition, the “Ratio IC50” value in the series on K562 [2] was 8.
As to `C=C1C(=O)[C@@]23C(=O)OC[C@]4(C=CCC(C)(C)[C@H]4C=O)[C@@H]2CC[C@@H]1[C@H]3OC(=O)/C=C/c1ccc2c(c1)OCO2`, the pIC50 is 5.73 in the series with K562 [1], 5.51 in the series on MDA-MB-231, 5.50 in the series on SMMC-7721 and 5.46 in the series on SW480.
The matching figures for `C=C1C(=O)[C@@]23C(=O)O[C@H]4CCC(C)(C)[C@H]5C(=O)OC[C@]45[C@H]2CC[C@@H]1[C@H]3O`: 5.26, 5.12, 5.25 and 5.18.
A word on the IC50: it is the concentration that gives 50% inhibition. Read a high IC50 as lower potency. As for `C=C1C(=O)[C@]23[C@H](O)[C@H]1CC[C@H]2[C@@]12CO[C@]3(O)[C@@H](O)[C@@H]1C(C)(C)CC[C@@H]2O` [ORIDONIN], the pIC50 was 5.37 in the series with K562 [1], 4.84 with SMMC-7721 and 4.98 in the series with SW480. Moreover, the selectivity ratio in series [3] amounted to 1.74. This compound returned a half-maximal inhibitory concentration (IC50) at 72 h in series [4] of 25000 nM.
For `C=C1C(=O)[C@@]23C(=O)OC[C@]4(C=CCC(C)(C)[C@H]4C=O)[C@@H]2CC[C@@H]1[C@H]3OC(=O)/C=C/c1ccsc1`, the negative logarithm of the IC50 (pIC50) was 5.61 with K562 [1], 5.42 with MDA-MB-231, 5.42 in the series with SMMC-7721 and 5.49 in the series on SW480.
As to `C=C1C(=O)[C@@]23C(=O)OC[C@]4(C=CCC(C)(C)[C@H]4C=O)[C@@H]2CC[C@@H]1[C@H]3OC(=O)/C=C/C`, the pIC50 in the series on K562 [1] was 5.73; with MDA-MB-231 it was 5.29; in the series with SMMC-7721, 5.42; with SW480 it was 5.42.
Take `C=C1C(=O)[C@@]23C(=O)OC[C@]4(C=CCC(C)(C)[C@H]4C=O)[C@@H]2CC[C@@H]1[C@H]3OC(=O)/C=C/c1ccnc(F)c1`: the pIC50 with K562 [1] was 6.12; with MDA-MB-231 it was 6.10; in the series on SMMC-7721 it was 6.04; in the series on SW480, 5.95.
The matching figures for `C=C1C(=O)[C@@]23C(=O)OC[C@]4(C=CCC(C)(C)[C@H]4C=O)[C@@H]2CC[C@@H]1[C@H]3OC(=O)/C=C/c1ccccc1`: 5.82, 5.49, 5.50 and 5.45.
The corresponding values for `C=C1C(=O)[C@@]23C(=O)OC[C@]4(C=CCC(C)(C)[C@H]4C=O)[C@@H]2CC[C@@H]1[C@H]3OC(=O)/C=C/c1ccc2ccccc2n1` are 5.91, 5.29, 5.52 and 5.47.
`C=C1C(=O)[C@@]23C(=O)OC[C@]4(C=CCC(C)(C)[C@H]4C=O)[C@@H]2CC[C@@H]1[C@H]3OC(=O)/C=C/c1ccncc1`: the pIC50 was 6.23 in the series on K562 [1], 6.12 in the series with MDA-MB-231, 5.77 in the series with SMMC-7721 and 6.09 with SW480. In addition, the “Ratio IC50” value in the series with K562 [2] amounted to 7.
Take `C=C1C(=O)[C@@]23C(=O)OC[C@]4(C=CCC(C)(C)[C@H]4C=O)[C@@H]2CC[C@@H]1[C@H]3OC(=O)/C=C/c1ccncc1F`: the negative logarithm of the IC50 (pIC50) was 6.27 with K562 [1], 6.08 in the series with MDA-MB-231, 6.21 in the series with SMMC-7721 and 6.14 in the series on SW480.
The corresponding values for `C=C1C(=O)[C@@]23C(=O)OC[C@]4(C=CCC(C)(C)[C@H]4C=O)[C@@H]2CC[C@@H]1[C@H]3O` are 5.90, 5.54, 5.43 and 5.56.
The corresponding values for `C=C1C(=O)[C@@]23C(=O)O[C@H]4CCC(C)(C)[C@H]5C(=O)OC[C@]45[C@H]2CC[C@@H]1[C@H]3OC(=O)/C=C/c1ccncc1F` are 6.17, 6.06, 6.00 and 6.01.
The matching figures for `C=C1C(=O)[C@@]23C(=O)OC[C@]4(C=CCC(C)(C)[C@H]4C=O)[C@@H]2CC[C@@H]1[C@H]3OC(=O)/C=C/c1ccc2ccccc2c1`: 5.72, 5.61, 5.66 and 5.51.
Regarding `C=C1C(=O)[C@@]23C(=O)O[C@H]4CCC(C)(C)[C@H]5C(=O)OC[C@]45[C@H]2CC[C@@H]1[C@H]3OC(=O)/C=C/c1ccnc(OC)c1`, the negative-log IC50 (pIC50) was 6.17 with K562 [1], 6.08 with MDA-MB-231, 6.02 in the series on SMMC-7721 and 6.03 with SW480.
With `C=C1C(=O)[C@@]23C(=O)O[C@H]4CCC(C)(C)[C@H]5C(=O)OC[C@]45[C@H]2CC[C@@H]1[C@H]3OC(=O)/C=C/c1ccncc1C`, the pIC50 in the series on K562 [1] was 6.04; with MDA-MB-231 it was 5.97; in the series on SMMC-7721, 5.97; with SW480 it was 6.12.
For the compound `C=C1C(=O)[C@@]23C(=O)OC[C@]4(C=CCC(C)(C)[C@H]4C=O)[C@@H]2CC[C@@H]1[C@H]3OC(=O)/C=C/c1ccnc(C)c1`, the pIC50 with K562 [1] is 6.01; in the series on MDA-MB-231 it was 5.83; in the series on SMMC-7721 it was 5.99; with SW480, 5.77.
`C=C1C(=O)[C@@]23C(=O)OC[C@]4(C=CCC(C)(C)[C@H]4C=O)[C@@H]2CC[C@@H]1[C@H]3OC(=O)/C=C/c1cncnc1`: the negative logarithm of the IC50 (pIC50) in the series with K562 [1] is 6.12; with MDA-MB-231 it was 5.65; in the series with SMMC-7721 it was 5.70; with SW480, 6.01.
The corresponding values for `C=C1C(=O)[C@@]23C(=O)OC[C@]4(C=CCC(C)(C)[C@H]4C=O)[C@@H]2CC[C@@H]1[C@H]3OC(=O)/C=C/c1ccccn1` are 6.25, 5.90, 6.10 and 6.18.
The matching figures for `C=C1C(=O)[C@@]23C(=O)O[C@H]4CCC(C)(C)[C@H]5C(=O)OC[C@]45[C@H]2CC[C@@H]1[C@H]3OC(=O)/C=C/c1cncnc1`: 6.03, 5.66, 5.70 and 5.99.
The matching figures for `C=C1C(=O)[C@@]23C(=O)O[C@H]4CCC(C)(C)[C@H]5C(=O)OC[C@]45[C@H]2CC[C@@H]1[C@H]3OC(=O)/C=C/c1ccnc(F)c1`: 6.19, 6.12, 6.09 and 6.11.
Regarding `C=C1C(=O)[C@@]23C(=O)OC[C@]4(C=CCC(C)(C)[C@H]4C=O)[C@@H]2CC[C@@H]1[C@H]3OC(=O)/C=C/c1ccncc1OC`, the negative logarithm of the IC50 (pIC50) is 6.38 in the series on K562 [1], 6.06 with MDA-MB-231, 6.10 with SMMC-7721 and 6.24 in the series on SW480.
Turning to `C=C1C(=O)[C@@]23C(=O)OC[C@]4(C=CCC(C)(C)[C@H]4C=O)[C@@H]2CC[C@@H]1[C@H]3OC(=O)/C=C/c1ccc[nH]1`, the pIC50 in the series on K562 [1] was 5.84; with MDA-MB-231, 5.40; in the series on SMMC-7721 it was 5.52; in the series on SW480, 5.61.
The matching figures for `C=C1C(=O)[C@@]23C(=O)OC[C@]4(C=CCC(C)(C)[C@H]4C=O)[C@@H]2CC[C@@H]1[C@H]3OC(=O)/C=C/c1ccco1`: 5.74, 5.53, 5.55 and 5.64.
